Patent US20240279215A1 (Cytokinetics, Incorporated, priority 2022, published 2024)
“And” between values parts separate entries of the source, which are not always exact repeats. Equal values may be shown once. Read-outs that look alike come from different tables or passages of the source.

Columns and labels:
[1] = target: human NAMPT (Homo sapiens (Human), UniProt P43490); experiment: NMN fluorescence biochemical assay (human recombinant NAMPT enzyme assay)
Procedure, shortened: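 Activation of recombinant human NAMPT (6 nM) was tested with 2.5 mM ATP, 20 μM PRPP and 150 μM nicotinamide in 50 mM HEPES pH 7.2 for 60 min at ambient temperature. NMN was derivatized with acetophenone/KOH/formic acid and read by fluorescence (355/460 nm) after 40 min.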

[2] = test system: P-gp (MDR1); experiment: MDR1-MDCK bidirectional permeability assay; settings: dog, MDCK-MDR1, pH 7.4, Efflux ratio
Protocol: (§1) A bidirectional permeability assay using Madin Darby canine kidney cells expressing multi-drug resistance gene 1 (MDCK-MDR1) is routinely used to evaluate discovery compounds' BBB permeability and drug efflux toward the advancement of discovery compounds with brain penetration.
(§2) MDCK-MDR1 Cells (NIH cell line) were obtained from the National Institutes of Health. […] Cell culture medium was replaced every other day, beginning no later than 24 hours after the initial plating. […] The dosing solution concentration was 1 μM for the test article in the assay buffer. Cell monolayers were dosed on the apical side (A-to-B) or basolateral side (B-to-A) and incubated at 37° C. under an atmosphere of 5% CO2 in a humidified incubator. Samples were taken from the donor and receiver chambers at 120 minutes. Each determination was performed in duplicate. After the 120 min transport period, the flux of lucifer yellow was also measured for each monolayer to ensure no damage was inflicted to the cell monolayers during the transport period. All samples were assayed by LC-MS/MS (Waters XSelect HSS T3 C18, 2.5 m, 2.1×50 mm) using electrospray ionization with 0.1% formic acid in water (mobile phase A) and 0.1% formic acid in acetonitrile (mobile phase B) as mobile phases. The apparent permeability coefficient (Papp), in units of cm per second, was calculated for MDCK-MDR1 Cells (NIH cell line) drug transport assays using the following equation:
(§3) Where VA is the volume (in mL) in the acceptor well, Area is the surface area of the membrane (0.143 cm^2 for Transwell-96 Well Permeable Supports), and time is the total transport time in seconds.
(§4) The leakage of Lucifer Yellow (LY), in unit of percentage (%), can be calculated using the following equation:
(§5) LY leakage of <1% is acceptable to indicate the well-qualified MDCK-MDR1(NIH) monolayer.

[3] = test system: MDCK-MDR1 cells (P-gp, MDR1); experiment: MDR1-MDCK bidirectional permeability assay; settings: for PappAB: A to B
Protocol: as §1, §2, §3, §4, §5

[4] = Plasma protein binding (PPB), mouse; type: in vitro ADME
[5] = Brain exposure assay in mice (brain-to-plasma ratio after oral administration); type: in vivo; settings: mouse, 100 mg/kg; for concentration at 6 h / Kp at 2 h / Kp uu at 2 h / Kp at 6 h / Kp uu at 6 h: male, C57BL/6JNIFDC, oral; for Kp at 2 h / Kp at 6 h: total brain-plasma concentration ratio; for Kp uu at 2 h / Kp uu at 6 h: unbound brain-to-plasma partition coefficient; for Kp at 2 h / Kp uu at 2 h / Cbrain, free (μM) / Cbrain, total (μM) / Cplasma, free (μM) / Cplasma, total (μM): 2 hr
Protocol: This protocol was used to determine the brain-to-plasma ratio in vivo in mice post oral administration of test compounds. Mice (C57BL/6JNIFDC, male, non-fasted, 18-30 g body weight, 3 mice for each timepoint) were dosed orally at 100 mg/kg (10 mg test compound/mL formulation, 10 mL dosing volume/kg) with plasma and brain tissues obtained at 2- and 6-hours post-administration. The oral dosing formulation composition used was 10% N,N-dimethylacetamide:20% propylene glycol:70% of 40% aqueous 2-hydroxypropyl-β-cyclodextrin.
For the isolation of mouse plasma from dosed animals, approximately 0.3 mL blood was collected by orbital sinus bleed and centrifuged (4000 g, 5 minutes, 4° C.). The plasma samples were stored frozen at −75±15° C. until further processing.
For the isolation of brain tissue from dosed animals, whole brain tissues were collected from euthanized and fully exsanguinated mice. The tissues were quickly rinsed with distilled water, dried with absorbent paper, followed by rapid freezing on dry ice and then storage at −75±15° C. until further processing. Brain tissue samples obtained from frozen whole brain were weighed and the samples homogenized using three equivalents of distilled water (3 mL per gram of brain tissue).
Standard and quality control samples were prepared by adding 3 μL of the test compound dimethyl sulfoxide (DMSO) stock solutions to blank plasma (30 μL) and blank brain homogenate aliquots (30 μL). Standard curves for brain and plasma were generated over a 1 to 1,000 ng/g test compound concentration range. For the extraction of test compound from plasma and brain tissue homogenate samples, a solution of acetonitrile containing internal standard ([…]) was added to 30 μL of samples with added 3 μL of DMSO. The samples then were vortex-mixed followed by centrifugation at 4000 rpm (4° C., 15 minutes). The resultant supernatants were diluted 5-fold with distilled water. Finally, 10 μL of the diluted supernatant was injected onto an LC-MS/MS instrument for quantitative analysis of test compound.
The brain-to-plasma ratio was calculated by the relationship: Brain-to-plasma ratio=Cbrain/Cplasma; where Cb is the concentration in brain tissue and Cp is the concentration in plasma at the corresponding timepoint.
Kp is the total brain-plasma concentration ratio; Kp=Cbrain/Cplasma.
Kp, uu is the unbound brain-to-plasma partition coefficient (Kp,uu,brain). It is a measure of the extent of the distribution equilibrium of a compound between the unbound (free) fractions in brain and in blood plasma; Kp, uu brain=Cu, brain/Cu, plasma.

[6] = Brain tissue binding, mouse; type: in vitro ADME
[7] = plasma, read-out: Cplasma, free
[8] = plasma, read-out: Cplasma, total

Sequence of human NAMPT (P43490 whole entry): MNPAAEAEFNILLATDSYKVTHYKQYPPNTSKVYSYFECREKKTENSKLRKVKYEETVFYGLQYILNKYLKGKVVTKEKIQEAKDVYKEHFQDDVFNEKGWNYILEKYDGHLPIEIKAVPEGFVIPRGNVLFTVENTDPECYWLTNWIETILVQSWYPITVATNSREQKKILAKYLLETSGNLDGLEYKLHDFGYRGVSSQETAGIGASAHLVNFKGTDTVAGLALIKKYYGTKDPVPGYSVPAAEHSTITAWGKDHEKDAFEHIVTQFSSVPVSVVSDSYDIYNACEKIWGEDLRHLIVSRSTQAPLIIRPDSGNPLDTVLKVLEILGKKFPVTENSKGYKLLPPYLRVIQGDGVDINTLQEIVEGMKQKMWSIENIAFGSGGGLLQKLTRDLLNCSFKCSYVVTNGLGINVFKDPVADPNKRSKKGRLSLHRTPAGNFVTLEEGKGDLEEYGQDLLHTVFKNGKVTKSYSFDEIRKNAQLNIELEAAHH

## COC(=O)N1CCC(Cc2ccc(NC(=O)OCc3ccncc3)cc2)CC1 [Compound 23, methyl 4-(4-(((pyridin-4-ylmethoxy)carbonyl)amino)benzyl)piperidine-1-carboxylate]
[1]
  AC1.4 Human: 0.32 µM
  EC50: 2.76 µM
[2]
  efflux ratio at 120 min, 1 μM: 2
[3]
  PappAB: 6.30

## O=C(Nc1ccc(COC2CCN(C3COC3)CC2)cc1)OCc1ccc(Cl)cc1 [Compound 232, 4-chlorobenzyl (4-(((1-(oxetan-3-yl)piperidin-4-yl)oxy)methyl)phenyl)carbamate]
[1]
  AC1.4 Human: 2.17 µM
  EC50: 20.8 µM
[2]
  efflux ratio at 120 min, 1 μM: 1.5
[3]
  PappAB: 9.8

## O=C(Nc1ccc(CCC2CCN(C3COC3)CC2)cc1)OCc1cnco1 [Compound 132, oxazol-5-ylmethyl (4-(2-(1-(oxetan-3-yl)piperidin-4-yl)ethyl)phenyl)carbamate]
[1]
  AC1.4 Human: 1.06 µM
  EC50: 41.1 µM
[2]
  efflux ratio at 120 min, 1 μM: 2.26
[3]
  PappAB: 13.54

## CC(=O)N1CCC(c2ccc(NC(=O)OCc3cnco3)cc2)CC1 [Compound 8, 1,3-oxazol-5-ylmethyl N-[4-(1-acetylpiperidin-4-yl)phenyl]carbamate]
[1]
  AC1.4 Human: 0.14 µM
  EC50: 32.6 µM
[2]
  efflux ratio at 120 min, 1 μM: 5.41
[3]
  PappAB: 9.77

## O=C(Nc1ccc(CC2CCN(CC(F)(F)F)CC2)cc1)OCc1cnco1 [Compound 70, oxazol-5-ylmethyl (4-((1-(2,2,2-trifluoroethyl)piperidin-4-yl)methyl)phenyl)carbamate]
[1]
  AC1.4 Human: 0.61 µM
  EC50: 22.9 µM
[2]
  efflux ratio at 120 min, 1 μM: 1.04
[3]
  PappAB: 9.10

## CC(=O)N1CCC(Cc2ccc(NC(=O)OCc3ccc(Cl)cc3)cc2)CC1 [Compound 40, 4-chlorobenzyl (4-((1-acetylpiperidin-4-yl)methyl)phenyl)carbamate]
[1]
  AC1.4 Human: 0.43 µM
  EC50: 2.4 µM
[2]
  efflux ratio at 120 min, 1 μM: 1.93
[3]
  Efflux ratio: 1.9
  PappAB: 3.38 and 3.4

## Cc1ccc(C(=O)NCc2ccc(NC(=O)OCc3ccc(Cl)cc3)cc2)cn1 [Compound 21, (4-chlorophenyl)methyl N-(4-{[(6-methylpyridin-3-yl)formamido]methyl}phenyl)carbamate]
[1]
  AC1.4 Human: 0.30 µM
  EC50: 2 µM
[2]
  efflux ratio at 120 min, 1 μM: 3.74
[3]
  PappAB: 2.79

## CN(C)C(=O)N1CCC(CCc2ccc(NC(=O)OCc3cnco3)cc2)CC1 [Compound 32, oxazol-5-ylmethyl (4-(2-(1-(dimethylcarbamoyl)piperidin-4-yl)ethyl)phenyl)carbamate]
[1]
  AC1.4 Human: 0.38 µM
  EC50: 21 µM
[2]
  efflux ratio at 120 min, 1 μM: 3.32
[3]
  PappAB: 5.57

## CC(C)S(=O)(=O)N1CCC(Cc2ccc(NC(=O)OCc3cnco3)cc2)CC1 [Compound 464, oxazol-5-ylmethyl (4-((1-(isopropylsulfonyl)piperidin-4-yl)methyl)phenyl)carbamate]
[1]
  AC1.4 Human: 0.14 µM
  EC50: 3.07 µM
[2]
  efflux ratio at 120 min, 1 μM: 2.19
[3]
  PappAB: 9.11

## O=C(Nc1ccc(CC2CCN(CC(F)F)CC2)cc1)OCc1cnco1 [Compound 59, oxazol-5-ylmethyl (4-((1-(2,2-difluoroethyl)piperidin-4-yl)methyl)phenyl)carbamate]
[1]
  AC1.4 Human: 0.56 µM
  EC50: 48.9 µM
[2]
  efflux ratio at 120 min, 1 μM: 1.11
[3]
  PappAB: 13.26

## CN(C)S(=O)(=O)N1CC2(CC(Cc3ccc(NC(=O)OCc4cnco4)cc3F)C2)C1 [Compound 399, oxazol-5-ylmethyl (4-((2-(N,N-dimethylsulfamoyl)-2-azaspiro[3.3]heptan-6-yl)methyl)-3-fluorophenyl)carbamate]
[1]
  AC1.4 Human: 0.15 µM
  EC50: 3.88 µM
[4]
  fraction unbound: 0.01
[5]; brain, read-out: Cbrain, free
  concentration at 6 h: 140 nM
[5]; brain, read-out: Cbrain, total
  concentration at 6 h: 11500 nM
[5]; [7]
  concentration at 6 h: 270 nM
[5]; [8]
  concentration at 6 h: 26800 nM
[5]
  Kp at 2 h: 0.44
  Kp uu at 2 h: 0.52
  Kp at 6 h: 0.43
  Kp uu at 6 h: 0.52
  Cbrain, free (μM): 0.23, μM
  Cbrain, total (μM): 19.5, μM
  Cplasma, free (μM): 0.44, μM
  Cplasma, total (μM): 44, μM
[6]
  fraction unbound: 0.012

## CN(C)C(=O)N1CC2(CC(c3ccc(NC(=O)OCc4cnco4)cc3F)C2)C1 [Compound 400, oxazol-5-ylmethyl (4-(2-(dimethylcarbamoyl)-2-azaspiro[3.3]heptan-6-yl)-3-fluorophenyl)carbamate]
[1]
  AC1.4 Human: 0.11 µM
  EC50: 15.4 µM
[4]
  fraction unbound: 0.043
[5]; brain, read-out: Cbrain, free
  concentration at 6 h: 80 nM
[5]; brain, read-out: Cbrain, total
  concentration at 6 h: 1400 nM
[5]; [7]
  concentration at 6 h: 140 nM
[5]; [8]
  concentration at 6 h: 3100 nM
[5]
  Kp at 2 h: 0.43
  Kp uu at 2 h: 0.53
  Kp at 6 h: 0.43
  Kp uu at 6 h: 0.57
  Cbrain, free (μM): 0.31, μM
  Cbrain, total (μM): 5.8, μM
  Cplasma, free (μM): 0.58, μM
  Cplasma, total (μM): 13.5, μM
[6]
  fraction unbound: 0.054

## O=C(NCc1ccc(Cl)cc1)Nc1ccc(CC2CCN(C3COC3)CC2)cc1 [Comparator 1, 1-(4-chlorobenzyl)-3-(4-((1-(oxetan-3-yl)piperidin-4-yl)methyl)phenyl)urea, reference compound]
[2]
  efflux ratio at 120 min, 1 μM: 14.7
[3]
  PappAB: 1.85

## O=C(Nc1ccc(CC2CCN(C3COC3)CC2)cc1)OCc1ccc(Cl)cc1 [Compound 43, 4-chlorobenzyl (4-((1-(oxetan-3-yl)piperidin-4-yl)methyl)phenyl)carbamate]
[1]
  AC1.4 Human: 0.45 µM
  EC50: 4.56 µM
[2]
  efflux ratio at 120 min, 1 μM: 0.92
[3]
  PappAB: 5.39 and 5.4

## O=C(Nc1ccc(CN2CCC[C@@H]2c2cccnc2)cc1)OCc1ccc(CO)cc1 [Compound 5, [4-(hydroxymethyl)phenyl]methyl N-(4-{[(2R)-2-(pyridin-3-yl)pyrrolidin-1-yl]methyl}phenyl)carbamate]
[1]
  AC1.4 Human: 0.07 µM
  EC50: 0.29 µM
[2]
  efflux ratio at 120 min, 1 μM: 7.02
[3]
  PappAB: 5.32

## COc1ccc(COC(=O)Nc2ccc(COC3CCN(C4COC4)CC3)cc2)cc1 [Compound 291, 4-methoxybenzyl (4-(((1-(oxetan-3-yl)piperidin-4-yl)oxy)methyl)phenyl)carbamate]
[1]
  AC1.4 Human: 3.97 µM
  EC50: 38.2 µM

## Cc1ccc(C(=O)N[C@@H](C)c2ccc(NC(=O)OCc3ccc(Cl)cc3)cc2)cn1 [Compound 60, 4-chlorobenzyl (S)-(4-(1-(6-methylnicotinamido)ethyl)phenyl)carbamate]
[1]
  AC1.4 Human: 0.57 µM
  EC50: 1.91 µM

## COc1nc(C)ccc1C(=O)NCc1ccc(NC(=O)OCc2ccc(Cl)cc2)cc1 [Compound 245, (4-chlorophenyl)methyl N-(4-{[(2-methoxy-6-methylpyridin-3-yl)formamido]methyl}phenyl)carbamate]
[1]
  AC1.4 Human: 2.39 µM
  EC50: 6.35 µM

## CC(=O)N1CCC(c2ccc(NC(=O)OCc3ccc(Cl)cc3)cc2)CC1 [Compound 15, (4-chlorophenyl)methyl N-[4-(1-acetylpiperidin-4-yl)phenyl]carbamate]
[1]
  AC1.4 Human: 0.24 µM
  EC50: 2.16 µM

## C[C@H](NC(=O)N1CCOCC1)c1ccc(NC(=O)OCc2ccc(Cl)cc2)cc1 [Compound 154, 4-chlorobenzyl (S)-(4-(1-(morpholine-4-carboxamido)ethyl)phenyl)carbamate]
[1]
  AC1.4 Human: 1.30 µM
  EC50: 12 µM
